The source of these data is the NIST ThermoML archive (doi:10.1021/je049721u).

Several values for one entry are separate records, joined by “and”; a condition that tells them apart may be missing. Equal entries are not always repeated. ± gives the expanded uncertainty stated by the source.

Data set [1] in a line: mn = molality of the nth substance listed, in mol/kg. The following applies: 101.3 kPa, Liquid, m2 = 0.
For data set [2] the following is noted: 101.3 kPa, Liquid.

On to `CN(C)C=O` [dimethylformamide] + [O-][Cl+3]([O-])([O-])[O-].[O-][Cl+3]([O-])([O-])[O-].[Zn+2], for which the mass density in data set [1] (283.15 K) is 958.163 ± 0.58 kg/m3; in data set [1] (293.15 K), 948.653 ± 0.59 kg/m3; in data set [1] (298.15 K) it was 943.884 ± 0.59 kg/m3; in data set [1] (303.15 K), 939.114 ± 0.59 kg/m3; in data set [1] (313.15 K) it was 929.529 ± 0.6 kg/m3; in data set [1] (323.15 K) it was 919.9 ± 0.61 kg/m3. Also, the mass density in data set [1] (333.15 K) came to 910.2 ± 0.61 kg/m3.
As for `CN(C)C=O` [dimethylformamide] + [Mn+2].[O-][Cl+3]([O-])([O-])[O-].[O-][Cl+3]([O-])([O-])[O-], the mass density in data set [1] (283.15 K) is 958.077 ± 0.58 kg/m3; in data set [1] (293.15 K), 948.565 ± 0.58 kg/m3; in data set [1] (298.15 K) it was 943.797 ± 0.59 kg/m3; in data set [1] (303.15 K), 939.017 ± 0.59 kg/m3; in data set [1] (313.15 K) it was 929.437 ± 0.6 kg/m3; in data set [1] (323.15 K), 919.807 ± 0.6 kg/m3. In data set [1] (333.15 K), the mass density is recorded as 910.12 ± 0.61 kg/m3.
Regarding `CN(C)C=O` [dimethylformamide], the mass density in data set [2] (283.15 K) was 958.077 ± 0.58 kg/m3 and 958.163 ± 0.58 kg/m3 and 958.075 ± 0.58 kg/m3; in data set [2] (293.15 K), 948.565 ± 0.58 kg/m3 and 948.653 ± 0.59 kg/m3; in data set [2] (298.15 K), 943.797 ± 0.59 kg/m3 and 943.884 ± 0.59 kg/m3; in data set [2] (303.15 K) it was 939.017 ± 0.59 kg/m3 and 939.114 ± 0.59 kg/m3; in data set [2] (313.15 K), 929.529 ± 0.6 kg/m3 and 929.437 ± 0.6 kg/m3; in data set [2] (323.15 K) it was 919.807 ± 0.6 kg/m3 and 919.9 ± 0.61 kg/m3. The mass density in data set [2] (333.15 K) was 910.12 ± 0.61 kg/m3 and 910.2 ± 0.61 kg/m3.
`CN(C)C=O` [dimethylformamide] + [Ni+2].[O-][Cl+3]([O-])([O-])[O-].[O-][Cl+3]([O-])([O-])[O-]: the mass density is recorded as 958.163 ± 0.58 kg/m3 in data set [1] (283.15 K); 948.653 ± 0.59 kg/m3 in data set [1] (293.15 K); 943.884 ± 0.59 kg/m3 in data set [1] (298.15 K); 939.114 ± 0.59 kg/m3 in data set [1] (303.15 K); 929.529 ± 0.6 kg/m3 in data set [1] (313.15 K); 919.9 ± 0.61 kg/m3 in data set [1] (323.15 K). The mass density in data set [1] (333.15 K) is on record as 910.2 ± 0.61 kg/m3.
As to `CN(C)C=O` [dimethylformamide] + [Cu+2].[O-][Cl+3]([O-])([O-])[O-].[O-][Cl+3]([O-])([O-])[O-], the mass density in data set [1] (283.15 K) is listed as 958.075 ± 0.58 kg/m3; in data set [1] (293.15 K), 948.565 ± 0.59 kg/m3; in data set [1] (298.15 K), 943.797 ± 0.59 kg/m3; in data set [1] (303.15 K) it was 939.017 ± 0.59 kg/m3; in data set [1] (313.15 K) it was 929.437 ± 0.6 kg/m3; in data set [1] (323.15 K) it was 919.807 ± 0.61 kg/m3. For the same compound, in data set [1] (333.15 K), the mass density is recorded as 910.12 ± 0.61 kg/m3.
`CN(C)C=O` [dimethylformamide] + [Co+2].[O-][Cl+3]([O-])([O-])[O-].[O-][Cl+3]([O-])([O-])[O-]: the mass density in data set [1] (283.15 K) amounted to 958.163 ± 0.58 kg/m3; in data set [1] (293.15 K), 948.653 ± 0.59 kg/m3; in data set [1] (298.15 K), 943.884 ± 0.59 kg/m3; in data set [1] (303.15 K), 939.114 ± 0.59 kg/m3; in data set [1] (313.15 K), 929.529 ± 0.6 kg/m3; in data set [1] (323.15 K), 919.9 ± 0.61 kg/m3. Further, the mass density in data set [1] (333.15 K) is recorded as 910.2 ± 0.61 kg/m3.
